What is called AUC(0-inf) is total exposure, with the tail of the curve extrapolated. Broadly, the AUC(0-t) is the area under the concentration-time curve up to a stated or last time point. A high value points to high exposure. As a reminder, the Cmax is the maximum level reached in the sampled fluid or tissue. In general, Tmax refers to the time at which the peak concentration occurs.

The subject of data set [1] is PGC-1α. Kind of data set: In vivo PGC-1α expression in liver of LPS-treated mice (ELISA). Details: species or system C57BL/6 mice. The conditions noted are these: for PGC-1α levels: C57BL/6 mice; for PGC-1α level (%): Control = 100. The procedure: C57BL/6 mice were procured from Vivo Bio Tech Ltd. Male mice were used for the study within an age range of 7 to 8 weeks. Body weight for these mice ranged from 20 g to 25 g. Animals were housed in a group of 6 in individually ventilated cages with temperature of 22±3° C., a relative humidity of 50 to 60%. The bottom of the cages was layered with sterilized corn cob. Animals were provided with gamma irradiated feed and autoclaved drinking water ad-libitum. The IVCs were maintained at an environment controlled (Centrally Air-Conditioned) room at a temperature of 22±3° C., a relative humidity of 50 to 60%, light intensity of 250-300 lux and a 12 hour light-dark cycle and noise intensity of <85 db.
Method of Preparation: LPS was dosed at 3 mg/kg in a dose volume of 10 ml/kg. For this, 0.3 mg/ml of LPS solution (Micronized suspension) was prepared. Butter paper was placed on analytical balance, tarred and LPS was placed on butter paper and its weight was noted down. LPS was transferred to 15 ml falcon tube. Then required amount of normal saline was added to it to make it 0.3 mg/ml. The solution was vortexed properly for 5 minutes and placed on ice. LPS solution was vortexed every time before aspiration and injection.
LPS was dosed at 3 mg/kg. Each test compound was dosed at 10 mg/kg, 2 hour and 15 min post LPS administration.
0.5% CMC was used as a vehicle with a dose volume of 10 ml/kg. An IP route was used for LPS, and a PO route was used for each test compound. Animals were sacrified 24 hours post LPS dosing, and plasma were collected. PGC-1α level was measured in liver samples, and other tissues were stored for future analysis. PGC-1α level was checked using ELISA kit—CUSABIO Mouse PPARGC1A ELISA kit.
Protocol: One day before start of the experiment C57BL/6 Mice (Male, 6-7-week-old) were randomized on the basis of their body weight and were divided into groups. All the cages were assigned the respective group name. Animals inside each cage were marked on the base of the tails with permanent marker to distinguish each animal. Mice were fasted overnight. Next day morning animals were dosed with test item. Group 1 (Control) and Group 2 (LPS) Animals were dosed with vehicle (0.5% CMC). Test items were prepared in 0.5% CMC by trituration in mortar and pestle and addition of CMC drop by drop. 2 hour post test item/vehicle dosing animals were administered with LPS through IP route at 3 mg/kg of body weight. Group 1 (Control) animals were administered with saline. 0.25 hour post LPS administration, animals were again dosed with test item/vehicle. Post dosing, animals were returned to their respective cages and kept until termination of the study. No feed was offered to any group. Animals were provided with water. 24 hour post LPS administration, blood was collected from each animal under influence of mild isoflurane anesthesia through retro-orbital technique. Animals were sacrificed by CO2 asphyxiation technique. Post-termination, animals were dissected and vital organs, liver, brain, skeleton muscle were collected in Eppendorf tubes and flash frozen in liquid nitrogen. Serum was collected from whole blood by centrifuging it at 4° C. at 10,000 RPM and for 10 minutes. (Blood was left for 2 hour for coagulation before centrifugation) After completion of the experiment, all collected samples were stored at −80° C. until analysis.
Assay Methods/Protocol: The mortar was chilled with liquid nitrogen and then the small tissue pieces were grinded in the presence of liquid nitrogen to a fine powder. Immediately after grinding, transferred small amount of tissue powder to a 1.5 ml micro centrifuge tube containing 1.0 ml lysis buffer (RIPA buffer+Protease inhibitor). The samples were then incubated on ice for 2 hours. The samples were vortexed every 15 minutes. The samples were then centrifuged at 13000×g for 15 minutes at 2-8° C. After centrifugation the supernatant was removed carefully and pellet was discarded. […]
(In general: ELISA stands for enzyme-linked immunosorbent assay.)

Data set [2] is described as follows: Pharmacokinetics: quantitative determination of compounds in mice plasma. The data set is classed as in vivo, C57BL/6 Mice. The conditions noted are these: 10 mg/kg PO single dose, vehicle 10% NMP. The protocol:
C57BL/6 Mice, Age 7-9 weeks, body weight range 20-25 g were used. The mice were fasted overnight. Mice were dosed once a day for a single day at 10 mg/kg, 10 mg/kg. 6 time-points were used for whole blood. 10% NMP was used as a vehicle. 9 animals were used per treatment, with three groups of three animals each. Group 1 had time points at 15 and 60 minutes, Group 2 had time points at 30 and 120 minutes, and Group 3 had time points at 90 and 240 minutes. An Oral (PO) route was used. Plasma and brain samples were collected (brain sample collected at terminal time point). Plasma was collected through the centrifugation of whole blood at 10,000 rpm for 10 minutes at 4° C. Samples were stored at −80° C. until processing.
1.00 mg/mL in 100% MeOH PP vials (prepared at RT yellow light) at 2-8° C. were used as stock solution. 12.22-50000 ng/mL using 80% MeOH PP vials (prepared at RT yellow light) at 2-8° C. were used as working solution. 0.98-4000 ng/mL (prepared at RT yellow light) was used for the curve range. For Compounds 26, 40, and 50, 1.00 mg/mL of Compound 53 in 100% methanol Ria vials (Prepared at RT yellow light) was used as IS stock solution, and 80 ng/mL of Compound 53 in 80% methanol (Prepared at RT yellow light) was used as IS working solution. For Compound 36, 1.00 mg/mL of Compound 47 in 100% methanol Ria vials (Prepared at RT yellow light) was used as IS stock solution, and 80 ng/mL of Compound 47 in 80% methanol (Prepared at RT yellow light) was used as IS working solution. A linear, 1/×2 fit type was used. The injection volume was 10 μL for Compounds 26 and 36, and 5 μL for Compounds 40 and 50. Mobile Phase A was 0.1% Formic Acid in water at room temperature. Mobile Phase B was 100% methanol at room temperature. R0 wash solution was 80% methanol at room temperature. R3 wash solution was IPA/MeOH/ACN/water (1:1:1:1) at room temperature. The column was Agilent Eclipse 50*2.1 mm 1.8 μm and the instrument was Shimadzu LC-40 UPLC and AB Sciez 6500+ with LCMS002.
Using a pipette, 25 μL of each sample were aliquoted (calibration curve sample, QC samples and blank matrix) to labeled 1.5 ml eppendorf. Using a pipette, 5.0 μL of IS of conc. 80 ng (Cocktail IS) was aliquoted to each standards and samples except Blank. All tubes were mixed on a multi-tube vortex for approximately 30 seconds. 50 μL of 10 mM Sodium bi-carbonate were added. 1 ml of tert-butyl methyl ether (TBME) was added. All tubes were mixed on a multi-tube vortex for approximately 5 minutes then centrifuged for 10 min at 5,000 rpm for Compounds 26 and 36 and at 10,000 rpm for Compounds 40 and 50, 4° C. The sample was kept in methanol containing dry ice for few seconds to freeze the Aqueous layer (flash freeze method). The upper organic layer was poured from the frozen tubes into the labeled 12×75-mm rial vials and evaporated to dryness under nitrogen using Liquid Evaporator (30° C., ˜15 psi, ˜10 mins). 200 μl of reconstitution solution (0.1% Formic Acid: MeOH (20:80 v/v) were added into each tube. Samples were Vortexed for 30 seconds then transferred to amber glass injection vials for injection.
After test item administration, blood samples were collected from individual animals in previously labeled Heparinised blood collection tubes. Blood samples were collected from retro orbital plexus. The time points for collection of blood samples from all the animals are; 0.25, 0.5, 1, 2 and 4 hr. The collected samples were subjected to centrifugation @ 10,000 rpm for 10 minutes at 40° C. for separation of plasma. Thereafter, plasma samples were collected in previously labeled plasma tubes. These were stored at −80° C. until analysis.

The subject of data set [3] is PGC-1α expression in C2C12 cells. Kind of data set: In vitro PGC-1α expression in C2C12 cells (cell ELISA). The data set is classed as cell-based. The following applies: 5000 cells/well, OD @ 650 nm, DMSO control = 100. The procedure: Culture conditions: DMEM containing 25 mM glucose with 10% FBS supplementation; grown at 37° C. and 5% CO2.
Drugs: (+)-Epicatechin, AICAR (direct activator of AMPK).
Assay Conditions: C2C12 cells were cultured in DMEM supplemented in 10% FBS upto 80% confluence. The cells were further trypsinized and seeded into a 96 well plate at a density of 5000 cells/well (well volume—100 μL) (Day 0). Following attachment, the cells were allowed to reach 80-90% confluence in the plate (typically 48 hours post seeding) and further differentiated using DMEM+2% Horse Serum (200 μL/well). The media was changed every day or at least every alternate day for 5 days to allow myoblasts to differentiate into myotubes. On day 7 (post seeding), the cells were treated with standards and test compounds for PGC-1 α assay.
PGC-1α assay: For the detection of PGC-1a, the cells were incubated with 0.5 μg/ml primary antibody (Merck, WH0010891M3) in PBS-T containing 5% BSA at 4° C. overnight. The cells were then washed three times with PBS-T for 5 minutes and incubated with 1:1000 dilution secondary antibody (Anti-rabbit IgG, HRP-linked Antibody, Cell Signaling) in PBS-T with 1% BSA for 1 hour at RT. Cells were washed three times with PBS-T for 5 minutes The cells were incubated with 100 μl TMB substrate solution for 30 minutes and the reaction was stopped with 100 μl of 2N H2SO4. […] (For plate optical density calculations, a background correction was taken at 540 nm). The final PGC-1a activation % is average of activation of 6 replicates.

Setting [4] is: LPS 3 mg/Kg IP, test compound 10 mg/kg PO BID, liver, 24 hours post LPS.
Where [5] appears, read: LPS 0.25 + 0.5 + 1 mg/kg, test compound 10 mg/kg.

Each structure is given as a SMILES string. “And” between values parts separate entries of the source, which are not always exact repeats. Equal entries are not always repeated.

With `CN(C)C(=O)[C@H]1CCC2C3CCC4=CC(=O)N(C)CC[C@]4(C)C3[C@@H](O)C[C@@]21C` (stereo partly drawn) [Compound 50, (5aR,6S,7aS)-6-hydroxy-N,N,3,5a,7a-pentamethyl-2-oxo-2,3,4,5,5a,5b,6,7,7a,8,9,10,10a,10b,11,12-hexadecahydrocyclopenta[5,6]naphtho[1,2-d]azepine-8-carboxamide], in data set [1] (setting [4]), the PGC-1α levels is 38684 pg/mL and 24206 pg/mL; the “PGC-1α level (%)” value is 110% and 80%. In data set [1] (setting [5]), the PGC-1α level turned out to be 2632 pg/mL and the “PGC-1α level (%)” value was determined as 40%. In data set [2], this molecule gave a T½ of 25.4 min. Further, in data set [2] (C57BL/6, mouse), the AUC(0-inf) came to 2540 ng·h/mL, the AUC(0-t) was 2450 ng·h/mL, the Cmax was found to be 2900 ng/mL and the Tmax is 15 min.

In the case of `NC(=O)c1ncn([C@@H]2O[C@H](CO)[C@@H](O)[C@H]2O)c1N` [AICAR, 5-aminoimidazole-4-carboxamide-1-β-D-ribofuranoside], in data set [3] (1 mM), the “% Activity (PGC-1α expression)” value is 148% and 140% and 130% and 128%.

As to `Oc1cc(O)c2c(c1)O[C@H](c1ccc(O)c(O)c1)[C@H](O)C2` [Epicatechin, (+)-Epicatechin, reference compound], in data set [1] (setting [4]), the PGC-1α levels is 33330 pg/mL and 31729 pg/mL and 21967 pg/mL; the “PGC-1α level (%)” value is 63% and 90% and 72%. For the same molecule, in data set [1] (setting [5]), the PGC-1α level was 3247 pg/mL and the “PGC-1α level (%)” value is given as 49%. In data set [3] (0.001 nM), the “% Activity (PGC-1α expression)” value is 129% and 123% and 120% and 122% and 125%.
